Measurements reported in ChEMBL document CHEMBL3885881, “DrugMatrix”.

Species on record: Rattus norvegicus
Experiment: DrugMatrix - Regimen: Daily Repeat
Assay type: toxicity, organism-based, Sprague-Dawley
Parameters: regimen Daily Repeat, gender Male, age 6-8 weeks
Conditions: in vivo, po, route oral GAVAGE, vehicle .5 % CMC; for ABSOLUTE BASOPHIL / ABSOLUTE EOSINOPHIL / ABSOLUTE LYMPHOCYTE / ABSOLUTE MONOCYTE / ABSOLUTE SEGMENTED NEUTROPHIL / BASOPHIL / EOSINOPHIL / ERYTHROCYTE COUNT / HEMATOCRIT / HEMOGLOBIN / LEUKOCYTE COUNT / LYMPHOCYTE / MEAN CORPUSCULAR HEMOGLOBIN / MEAN CORPUSCULAR HEMOGLOBIN CONCENTRATION / MEAN CORPUSCULAR VOLUME / MONOCYTE / NEUTROPHIL / NUCLEATED RED BLOOD CELLS / PLATELET COUNT: tissue Blood; for ALANINE AMINOTRANSFERASE / ALBUMIN / ALKALINE PHOSPHATASE / ASPARTATE AMINOTRANSFERASE / BLOOD UREA NITROGEN / CARBON DIOXIDE / CHLORIDE / CHOLESTEROL / CREATINE PHOSPHOKINASE / CREATININE / GLUCOSE / LACTATE DEHYDROGENASE / LIPASE / PHOSPHORUS / POTASSIUM / SODIUM / TOTAL BILIRUBIN / TOTAL PROTEIN / URIC ACID: tissue Plasma
[1] = 31 mg/kg, 72 h, dose level Low, time 3 day
[2] = 31 mg/kg, 120 h, dose level Low, time 5 day
[3] = 76 mg/kg, 72 h, dose level High, time 3 day
[4] = 76 mg/kg, 120 h, dose level High, time 5 day

O=C1CN(/N=C/c2ccc([N+](=O)[O-])o2)C(=O)N1 [NITROFURANTOIN]
ABSOLUTE BASOPHIL [1]: 0 CELLS/uL
ABSOLUTE EOSINOPHIL [1]: 106.67 CELLS/uL
ABSOLUTE LYMPHOCYTE [1]: 13250.33 CELLS/uL
ABSOLUTE MONOCYTE [1]: 160 CELLS/uL
ABSOLUTE SEGMENTED NEUTROPHIL [1]: 1583 CELLS/uL
BASOPHIL [1]: 0%
EOSINOPHIL [1]: 0.67%
ERYTHROCYTE COUNT [1]: 5.65 x10E6/uL
HEMATOCRIT [1]: 35.43%
HEMOGLOBIN [1]: 13.47 G/DL
LEUKOCYTE COUNT [1]: 15.1 x10E3/uL
LYMPHOCYTE [1]: 88%
MEAN CORPUSCULAR HEMOGLOBIN [1]: 23.9 pg
MEAN CORPUSCULAR HEMOGLOBIN CONCENTRATION [1]: 38.03 G/DL
MEAN CORPUSCULAR VOLUME [1]: 62.77 fL
MONOCYTE [1]: 1%
NEUTROPHIL [1]: 10.33%
NUCLEATED RED BLOOD CELLS [1]: 0.33 /100WBC
PLATELET COUNT [1]: 1275.33 x10E3/uL
ALANINE AMINOTRANSFERASE [1]: 49.33 u/L
ALBUMIN [1]: 4.4 G/DL
ALKALINE PHOSPHATASE [1]: 440.67 u/L
ASPARTATE AMINOTRANSFERASE [1]: 85 u/L
BLOOD UREA NITROGEN [1]: 15.33 mg/dL
CARBON DIOXIDE [1]: 22.67 mmol/L
CHLORIDE [1]: 105.67 MEQ/L
CHOLESTEROL [1]: 74.67 mg/dL
CREATINE PHOSPHOKINASE [1]: 232.33 u/L
CREATININE [1]: 0.25 mg/dL
GLUCOSE [1]: 142.33 mg/dL
LACTATE DEHYDROGENASE [1]: 280 u/L
LIPASE [1]: 9.67 u/L
PHOSPHORUS [1]: 13.57 mg/dL
POTASSIUM [1]: 6.78 MEQ/L
SODIUM [1]: 147.27 MEQ/L
TOTAL BILIRUBIN [1]: 0.27 mg/dL
TOTAL PROTEIN [1]: 6.1 G/DL
URIC ACID [1]: 2.1 mg/dL
ABSOLUTE BASOPHIL [2]: 0 CELLS/uL
ABSOLUTE EOSINOPHIL [2]: 48 CELLS/uL
ABSOLUTE LYMPHOCYTE [2]: 14184 CELLS/uL
ABSOLUTE MONOCYTE [2]: 368 CELLS/uL
ABSOLUTE SEGMENTED NEUTROPHIL [2]: 1000 CELLS/uL
BASOPHIL [2]: 0%
EOSINOPHIL [2]: 0.33%
ERYTHROCYTE COUNT [2]: 5.46 x10E6/uL
HEMATOCRIT [2]: 34.3%
HEMOGLOBIN [2]: 13.23 G/DL
LEUKOCYTE COUNT [2]: 15.6 x10E3/uL
LYMPHOCYTE [2]: 90.67%
MEAN CORPUSCULAR HEMOGLOBIN [2]: 24.3 pg
MEAN CORPUSCULAR HEMOGLOBIN CONCENTRATION [2]: 38.57 G/DL
MEAN CORPUSCULAR VOLUME [2]: 62.93 fL
MONOCYTE [2]: 2.33%
NEUTROPHIL [2]: 6.67%
NUCLEATED RED BLOOD CELLS [2]: 0.33 /100WBC
PLATELET COUNT [2]: 1440 x10E3/uL
ALANINE AMINOTRANSFERASE [2]: 44.67 u/L
ALBUMIN [2]: 4.27 G/DL
ALKALINE PHOSPHATASE [2]: 262 u/L
ASPARTATE AMINOTRANSFERASE [2]: 72.33 u/L
BLOOD UREA NITROGEN [2]: 13.67 mg/dL
CARBON DIOXIDE [2]: 25.67 mmol/L
CHLORIDE [2]: 106.33 MEQ/L
CHOLESTEROL [2]: 58.33 mg/dL
CREATINE PHOSPHOKINASE [2]: 186 u/L
CREATININE [2]: 0.19 mg/dL
GLUCOSE [2]: 159 mg/dL
LACTATE DEHYDROGENASE [2]: 76.67 u/L
LIPASE [2]: 11.67 u/L
PHOSPHORUS [2]: 12.87 mg/dL
POTASSIUM [2]: 6.41 MEQ/L
SODIUM [2]: 147.13 MEQ/L
TOTAL BILIRUBIN [2]: 0.17 mg/dL
TOTAL PROTEIN [2]: 5.97 G/DL
URIC ACID [2]: 2.1 mg/dL
ABSOLUTE BASOPHIL [3]: 0 CELLS/uL
ABSOLUTE EOSINOPHIL [3]: 0 CELLS/uL
ABSOLUTE LYMPHOCYTE [3]: 13972.67 CELLS/uL
ABSOLUTE MONOCYTE [3]: 336.33 CELLS/uL
ABSOLUTE SEGMENTED NEUTROPHIL [3]: 1224.33 CELLS/uL
BASOPHIL [3]: 0%
EOSINOPHIL [3]: 0%
ERYTHROCYTE COUNT [3]: 5.83 x10E6/uL
HEMATOCRIT [3]: 38.1%
HEMOGLOBIN [3]: 13.73 G/DL
LEUKOCYTE COUNT [3]: 15.53 x10E3/uL
LYMPHOCYTE [3]: 89.33%
MEAN CORPUSCULAR HEMOGLOBIN [3]: 23.53 pg
MEAN CORPUSCULAR HEMOGLOBIN CONCENTRATION [3]: 36 G/DL
MEAN CORPUSCULAR VOLUME [3]: 65.37 fL
MONOCYTE [3]: 2.33%
NEUTROPHIL [3]: 8.33%
NUCLEATED RED BLOOD CELLS [3]: 0 /100WBC
PLATELET COUNT [3]: 1452.67 x10E3/uL
ALANINE AMINOTRANSFERASE [3]: 48.67 u/L
ALBUMIN [3]: 4.37 G/DL
ALKALINE PHOSPHATASE [3]: 355.67 u/L
ASPARTATE AMINOTRANSFERASE [3]: 77 u/L
BLOOD UREA NITROGEN [3]: 14.33 mg/dL
CARBON DIOXIDE [3]: 25 mmol/L
CHLORIDE [3]: 103.67 MEQ/L
CHOLESTEROL [3]: 77 mg/dL
CREATINE PHOSPHOKINASE [3]: 150 u/L
CREATININE [3]: 0.21 mg/dL
GLUCOSE [3]: 208.33 mg/dL
LACTATE DEHYDROGENASE [3]: 99 u/L
LIPASE [3]: 9.67 u/L
PHOSPHORUS [3]: 13.23 mg/dL
POTASSIUM [3]: 6.13 MEQ/L
SODIUM [3]: 146.97 MEQ/L
TOTAL BILIRUBIN [3]: 0.23 mg/dL
TOTAL PROTEIN [3]: 6.1 G/DL
URIC ACID [3]: 2.37 mg/dL
ABSOLUTE BASOPHIL [4]: 0 CELLS/uL
ABSOLUTE EOSINOPHIL [4]: 34.67 CELLS/uL
ABSOLUTE LYMPHOCYTE [4]: 10550 CELLS/uL
ABSOLUTE MONOCYTE [4]: 260.33 CELLS/uL
ABSOLUTE SEGMENTED NEUTROPHIL [4]: 1188.33 CELLS/uL
BASOPHIL [4]: 0%
EOSINOPHIL [4]: 0.33%
ERYTHROCYTE COUNT [4]: 5.54 x10E6/uL
HEMATOCRIT [4]: 34.03%
HEMOGLOBIN [4]: 12.9 G/DL
LEUKOCYTE COUNT [4]: 12.03 x10E3/uL
LYMPHOCYTE [4]: 88%
MEAN CORPUSCULAR HEMOGLOBIN [4]: 23.27 pg
MEAN CORPUSCULAR HEMOGLOBIN CONCENTRATION [4]: 37.9 G/DL
MEAN CORPUSCULAR VOLUME [4]: 61.4 fL
MONOCYTE [4]: 2%
NEUTROPHIL [4]: 9.67%
NUCLEATED RED BLOOD CELLS [4]: 0 /100WBC
PLATELET COUNT [4]: 1320 x10E3/uL
ALANINE AMINOTRANSFERASE [4]: 44.67 u/L
ALBUMIN [4]: 4.2 G/DL
ALKALINE PHOSPHATASE [4]: 279.67 u/L
ASPARTATE AMINOTRANSFERASE [4]: 85.67 u/L
BLOOD UREA NITROGEN [4]: 17 mg/dL
CARBON DIOXIDE [4]: 25.67 mmol/L
CHLORIDE [4]: 105 MEQ/L
CHOLESTEROL [4]: 70 mg/dL
CREATINE PHOSPHOKINASE [4]: 220 u/L
CREATININE [4]: 0.18 mg/dL
GLUCOSE [4]: 163.33 mg/dL
LACTATE DEHYDROGENASE [4]: 160.67 u/L
LIPASE [4]: 9.33 u/L
PHOSPHORUS [4]: 12.57 mg/dL
POTASSIUM [4]: 6.4 MEQ/L
SODIUM [4]: 146.63 MEQ/L
TOTAL BILIRUBIN [4]: 0.2 mg/dL
TOTAL PROTEIN [4]: 5.87 G/DL
URIC ACID [4]: 2.37 mg/dL
